# Test results from BindingDB's records for patent US9695170 (FibroGen Inc, 2017).
# Molecular target: Egl nine homolog 1 (Homo sapiens, UniProt Q9GZT9)
# Assay: HIF-PH Assay
# Details: pH 7.4
# From the text: Ketoglutaric acid α-[1-14C]-sodium salt, alpha-ketoglutaric acid sodium salt, and HPLC purified peptide may be obtained from commercial sources, e.g., Perkin-Elmer (Wellesley Mass.), Sigma-Aldrich, and SynPep Corp. (Dublin Calif.), respectively. […] For example, a HIF peptide for use in the HIF-PH assay is [methoxycoumarin]-[…]-amide. HIF-PH, e.g., HIF-PH2 (EGLN1), can be expressed in, e.g., insect Hi5 cells, and partially purified, e.g., through a SP ion exchange chromatography column. […] Reactions are initiated by addition of HIF-PH enzyme.
# Egl nine homolog 1, sequence (Q9GZT9 whole entry): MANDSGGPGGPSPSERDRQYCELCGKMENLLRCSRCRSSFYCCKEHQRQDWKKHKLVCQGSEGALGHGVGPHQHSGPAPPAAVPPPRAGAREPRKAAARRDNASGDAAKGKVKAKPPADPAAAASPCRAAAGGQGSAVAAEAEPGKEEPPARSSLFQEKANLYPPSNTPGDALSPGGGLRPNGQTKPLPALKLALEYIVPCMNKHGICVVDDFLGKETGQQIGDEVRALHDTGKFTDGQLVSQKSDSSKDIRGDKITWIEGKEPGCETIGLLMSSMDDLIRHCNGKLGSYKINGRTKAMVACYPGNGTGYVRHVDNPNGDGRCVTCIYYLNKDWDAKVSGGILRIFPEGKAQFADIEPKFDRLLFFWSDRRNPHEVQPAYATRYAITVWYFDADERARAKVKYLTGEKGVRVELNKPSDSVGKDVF
row,IC50 [µM],Structure (SMILES)
1,134,COC(=O)NCCNC(=O)c1nc(C#N)c2ccc(=O)n(Cc3ccccc3)c2c1O [US9695170 95]
2,176,Cc1ccncc1-c1nc(C(=O)NCCC(=O)O)c(O)c2cc(-c3ccccc3)c(=O)n(Cc3ccccc3)c12 [US9695170 179]
3,137,COC(=O)NCCNC(=O)c1ncc2ccc(=O)n(Cc3ccccc3)c2c1O [US9695170 96]
